In ChEMBL document CHEMBL1697681, “Predicting phospholipidosis using machine learning” (Mol Pharm, 2010):

test system: Phospholipidosis; assay: Literature-mined public compounds from Lowe et al phospholipidosis modelling dataset

SMILES	Phospholipidosis
CN1C(=O)CN=C(c2ccccc2)c2cc(Cl)ccc21 [DIAZEPAM]	Negative
NC[C@@H]1CC[C@@H](N)[C@@H](O[C@H]2[C@H](O)[C@@H](O[C@H]3O[C@H](CO)[C@@H](O)[C@H](N)[C@H]3O)[C@H](N)C[C@@H]2N)O1 [DIBEKACIN]	Positive
O=C(O)Cc1ccccc1Nc1c(Cl)cccc1Cl [DICLOFENAC]	Negative
O=C(O)c1cc(-c2ccc(F)cc2F)ccc1O [DIFLUNISAL]	Negative
CC(C)N(CCC(CCN1CCCCC1)(C(N)=O)c1ccccc1Cl)C(C)C (stereo not given) [DISOBUTAMIDE]	Positive
COc1cc2c(cc1OC)C(=O)C(CC1CCN(Cc3ccccc3)CC1)C2 (stereo not given) [DONEPEZIL]	Negative
CCN1CC(CCN2CCOCC2)C(c2ccccc2)(c2ccccc2)C1=O (stereo not given) [DOXAPRAM]	Negative
COc1cccc2c1C(=O)c1c(O)c3c(c(O)c1C2=O)C[C@@](O)(C(=O)CO)C[C@@H]3O[C@H]1C[C@H](N)[C@H](O)[C@H](C)O1 [DOXORUBICIN]	Negative
C[C@H]1c2cccc(O)c2C(=O)C2=C(O)[C@]3(O)C(=O)C(C(N)=O)=C(O)[C@@H](N(C)C)[C@@H]3[C@@H](O)[C@@H]21.O [DOXYCYCLINE]	Negative
CC[C@H]1CN2CCc3cc(OC)c(OC)cc3[C@@H]2C[C@@H]1C[C@H]1NCCc2cc(OC)c(OC)cc21 [EMETINE]	Positive
CC[C@H]1OC(=O)[C@H](C)[C@@H](O[C@H]2C[C@@](C)(OC)[C@@H](O)[C@H](C)O2)[C@H](C)[C@@H](O[C@@H]2O[C@H](C)C[C@H](N(C)C)[C@H]2O)[C@](C)(O)C[C@@H](C)C(=O)[C@H](C)[C@@H](O)[C@]1(C)O [ERYTHROMYCIN]	Positive
C#C[C@]1(O)CC[C@H]2[C@@H]3CCc4cc(O)ccc4[C@H]3CC[C@@]21C [ETHINYL ESTRADIOL]	Negative
CCSCC[C@H](N)C(=O)O [ETHIONINE]	Negative
CCOC(=O)C1N=C(c2ccccc2F)c2cc(Cl)ccc2NC1=O (stereo not given) [ETHYL LOFLAZEPATE]	Positive
COc1cc([C@@H]2c3cc4c(cc3[C@@H](O[C@@H]3O[C@@H]5CO[C@@H](C)O[C@H]5[C@H](O)[C@H]3O)[C@H]3COC(=O)[C@H]23)OCO4)cc(OC)c1O [ETOPOSIDE]	Negative
NC(N)=Nc1nc(CSCCC(N)=NS(N)(=O)=O)cs1 [FAMOTIDINE]	Negative
NC(=O)OCC(COC(N)=O)c1ccccc1 [FELBAMATE]	Negative
CCNC(C)Cc1cccc(C(F)(F)F)c1 (stereo not given) [FENFLURAMINE]	Positive
CC(C)OC(=O)C(C)(C)Oc1ccc(C(=O)c2ccc(Cl)cc2)cc1 [FENOFIBRATE]	Negative
O=C(NCC1CCCCN1)c1cc(OCC(F)(F)F)ccc1OCC(F)(F)F (stereo not given) [FLECAINIDE]	Negative
CNCCC(Oc1ccc(C(F)(F)F)cc1)c1ccccc1 (stereo not given) [FLUOXETINE]	Positive
CC(C)C(=O)Nc1ccc([N+](=O)[O-])c(C(F)(F)F)c1 [FLUTAMIDE]	Negative
COCCCC/C(=N\OCCN)c1ccc(C(F)(F)F)cc1 [FLUVOXAMINE]	Positive
NS(=O)(=O)c1cc(C(=O)O)c(NCc2ccco2)cc1Cl [FUROSEMIDE]	Negative
Cc1ccc(C)c(OCCCC(C)(C)C(=O)O)c1 [GEMFIBROZIL]	Negative
CN[C@@H]1[C@@H](O)[C@@H](O[C@@H]2[C@@H](O)[C@H](O[C@H]3O[C@H]([C@@H](C)NC)CC[C@H]3N)[C@@H](N)C[C@H]2N)OC[C@]1(C)O [GENTAMICIN C1]	Positive
CN[C@@H]1[C@@H](O)[C@@H](O[C@@H]2[C@@H](O)[C@H](O[C@H]3O[C@H](C(C)N)CC[C@H]3N)[C@@H](N)C[C@H]2N)OC[C@]1(C)O (stereo not given in full) [GENTAMICIN C2]	Positive

SMILES	Phospholipidosis
N[C@H]1C(O)O[C@H](CO)[C@@H](O)[C@@H]1O (stereo not given in full) [GLUCOSAMINE]	Negative
O=C(CCCN1CCC(O)(c2ccc(Cl)cc2)CC1)c1ccc(F)cc1 [HALOPERIDOL]	Positive
CN1CCCN(C(c2ccccc2)c2ccc(Cl)cc2)CC1 (stereo not given) [HOMOCHLORCYCLIZINE]	Positive
NN [HYDRAZINE]	Negative
NC(=O)NO [HYDROXYUREA]	Negative
OCCOCCN1CCN(C(c2ccccc2)c2ccc(Cl)cc2)CC1 (stereo not given) [HYDROXYZINE]	Positive
CN(C)CCCN1c2ccccc2CCc2ccccc21 [IMIPRAMINE]	Positive
O=C(NC1CCN(CCc2c[nH]c3ccccc23)CC1)c1ccccc1 [INDORAMIN]	Positive
CC(=O)N1CCN(c2ccc(OCC3COC(Cn4ccnc4)(c4ccc(Cl)cc4Cl)O3)cc2)CC1 (stereo not given) [KETOCONAZOLE]	Positive
CC(CCc1ccccc1)NCC(O)c1ccc(O)c(C(N)=O)c1 (stereo not given) [LABETALOL]	Positive
C[C@H]1COc2c(N3CCN(C)CC3)c(F)cc3c(=O)c(C(=O)O)cn1c23.C[C@H]1COc2c(N3CCN(C)CC3)c(F)cc3c(=O)c(C(=O)O)cn1c23.O [LEVOFLOXACIN]	Negative
CCN(CC)CC(=O)Nc1c(C)cccc1C [LIDOCAINE]	Positive
CCOC(=O)N1CCC(=C2c3ccc(Cl)cc3CCc3cccnc32)CC1 [LORATADINE]	Positive
CCN(CC)C(=O)[C@@H]1C=C2c3cccc4[nH]cc(c34)C[C@H]2N(C)C1 [LYSERGIDE]	Positive
CNCCCC12CCC(c3ccccc31)c1ccccc12 [MAPROTILINE]	Positive
Cc1cccc(CN2CCN(C(c3ccccc3)c3ccc(Cl)cc3)CC2)c1 (stereo not given) [MECLIZINE]	Positive
CC12CC3CC(C)(C1)CC(N)(C3)C2 [MEMANTINE]	Positive
CC1=CC(=O)c2ccccc2C1=O [MENADIONE]	Negative
CN1CCCCC1CCN1c2ccccc2Sc2ccc([S+](C)[O-])cc21 (stereo not given) [MESORIDAZINE]	Positive
CN(C)C(=N)N=C(N)N [METFORMIN]	Negative
CCC(=O)C(CC(C)N(C)C)(c1ccccc1)c1ccccc1 (stereo not given) [METHADONE]	Negative
CN(Cc1cnc2nc(N)nc(N)c2n1)c1ccc(C(=O)N[C@@H](CCC(=O)O)C(=O)O)cc1 [METHOTREXATE]	Negative
C[C@](N)(Cc1ccc(O)c(O)c1)C(=O)O [METHYLDOPA]	Negative
CN1CCN2c3ccccc3Cc3ccccc3C2C1 (stereo not given) [MIANSERIN]	Positive
CCN[C@@H]1C[C@H](N)[C@@H](O[C@H]2OC(CN)=CC[C@H]2N)[C@H](O)[C@H]1O[C@H]1OC[C@](C)(O)[C@H](NC)[C@H]1O [NETILMICIN]	Positive
Clc1ccc(C(c2ccccc2)N2CCNCC2)cc1 (stereo not given) [NORCHLORCYCLIZINE]	Positive
CNCCC=C1c2ccccc2CCc2ccccc21 [NORTRIPTYLINE]	Positive

SMILES	Phospholipidosis
CN(C)CCON=C1c2ccccc2CCc2ccccc21 [NOXIPTILINE]	Positive
CC1COc2c(N3CCN(C)CC3)c(F)cc3c(=O)c(C(=O)O)cn1c23 (stereo not given) [OFLOXACIN]	Negative
NCCc1cc(O)c(O)cc1O [OXIDOPAMINE]	Positive
C1CCC(C(CC2CCCCN2)C2CCCCC2)CC1 (stereo not given) [PERHEXILINE]	Positive
CCOc1ccc(NC(C)=O)cc1 [PHENACETIN]	Positive
CCC1(c2ccccc2)C(=O)NC(=O)NC1=O [PHENOBARBITAL]	Negative
CC(C)(N)Cc1ccccc1 [PHENTERMINE]	Positive
CNC(=O)Oc1ccc2c(c1)[C@]1(C)CCN(C)[C@@H]1N2C [PHYSOSTIGMINE]	Negative
Cc1cccc(Nc2cc(Cl)nc(SCC(=O)O)n2)c1C [PIRINIXIC ACID]	Negative
CN1C(C(=O)Nc2ccccn2)=C(O)c2ccccc2S1(=O)=O [PIROXICAM]	Negative
CC(Cc1ccccc1)NCCC(c1ccccc1)c1ccccc1 (stereo not given) [PRENYLAMINE]	Positive
CCN(CC)CCNC(=O)c1ccc(N)cc1 [PROCAINAMIDE]	Negative
CCN(CC)CCOC(=O)c1ccc(N)cc1 [PROCAINE]	Negative
CN(C)CCCN1c2ccccc2Sc2ccccc21 [PROMAZINE]	Positive
CC(CN1c2ccccc2Sc2ccccc21)N(C)C (stereo not given) [PROMETHAZINE]	Positive
CC(C)NCC(O)COc1cccc2ccccc12 (stereo not given) [PROPRANOLOL]	Positive
CCN(CC)CCCC(C)Nc1c2ccc(Cl)cc2nc2ccc(OC)cc12 (stereo not given) [QUINACRINE]	Positive
C=C[C@H]1C[N@@]2CC[C@H]1C[C@@H]2[C@@H](O)c1ccnc2ccc(OC)cc12 [QUINIDINE]	Positive
CO[C@H]1/C=C/O[C@@]2(C)Oc3c(C)c(O)c4c(O)c(c(/C=N/N5CCN(C)CC5)c(O)c4c3C2=O)NC(=O)/C(C)=C\C=C\[C@H](C)[C@H](O)[C@@H](C)[C@@H](O)[C@@H](C)[C@H](OC(C)=O)[C@@H]1C [RIFAMPIN]	Negative
CN(C)[C@@H]1C(O)=C(C(=O)NCN2CCCC2)C(=O)[C@@]2(O)C(O)=C3C(=O)c4c(O)cccc4[C@@](C)(O)[C@H]3C[C@@H]12 [ROLITETRACYCLINE]	Negative
CN[C@H]1CC[C@@H](c2ccc(Cl)c(Cl)c2)c2ccccc21 [SERTRALINE]	Positive
CC(C)NCC(O)c1ccc(NS(C)(=O)=O)cc1 (stereo not given) [SOTALOL]	Negative
CN[C@@H]1[C@H](O)[C@H](NC)[C@H]2O[C@@]3(O)C(=O)C[C@@H](C)O[C@H]3O[C@@H]2[C@H]1O [SPECTINOMYCIN]	Positive
Cc1cn([C@H]2C=C[C@@H](CO)O2)c(=O)[nH]c1=O [STAVUDINE]	Negative
N=C(N)c1ccc(/C=C/c2ccc(C(=N)N)cc2)cc1 [STILBAMIDINE]	Positive
Cc1cc(NS(=O)(=O)c2ccc(N)cc2)no1 [SULFAMETHOXAZOLE]	Negative
